Assay results published in ChEMBL document CHEMBL1201862, “PubChem BioAssay data set” (2004).
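A five-concentration, 48-hour dose response in 96-well plates underlies each endpoint, interpolated linearly between surrounding concentrations. GI50 is the concentration that inhibits growth by half.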 Active and inactive are the calls of the source. Rule as the data show it: active = GI50 up to about 1.1 µM and inactive = higher.

Legend:
Assay in all cases: NCI-60 cell line screen, 48 h
Malme-3M = test system: Malme-3M
SF-268 = test system: SF-268
LOX IMVI = test system: LOX IMVI
SNB-75 = test system: SNB-75
UACC-257 = test system: UACC-257
HOP-92 = test system: HOP-92
OVCAR-4 = test system: OVCAR-4
HCC 2998 = test system: HCC 2998
HT-29 = test system: HT-29
RPMI-8226 = test system: RPMI-8226
UACC-62 = test system: UACC-62
TK-10 = test system: TK-10
NCI-H460 = test system: NCI-H460
CAKI-1 = test system: CAKI-1
HOP-62 = test system: HOP-62
NCI-H522 = test system: NCI-H522
SK-OV-3 = test system: SK-OV-3
SK-MEL-2 = test system: SK-MEL-2

Measured: GI50

C#CCNC(=O)NCCCCC(NC(C)=O)C(=O)NCc1ccccc1 (stereo not drawn)
inactive: Malme-3M > 100 µM | SF-268 > 100 µM | LOX IMVI > 100 µM | SNB-75 > 100 µM | UACC-257 > 100 µM | HOP-92 > 100 µM | OVCAR-4 > 100 µM | HCC 2998 > 100 µM | HT-29 > 100 µM | RPMI-8226 > 100 µM | UACC-62 > 100 µM | TK-10 > 100 µM | NCI-H460 > 100 µM | CAKI-1 > 100 µM | HOP-62 > 100 µM | NCI-H522 > 100 µM | SK-OV-3 > 100 µM

CN1CCC(SC2Cc3cc(Cl)ccc3Sc3ccccc32)CC1 (stereo not drawn)
inactive: Malme-3M 14.2 µM | SF-268 11.8 µM | LOX IMVI 11.5 µM | SNB-75 8.79 µM | UACC-257 7.96 µM | HOP-92 11.7 µM | OVCAR-4 14.7 µM | HCC 2998 8.93 µM | HT-29 4.24 µM | RPMI-8226 7.29 µM | UACC-62 3.33 µM | TK-10 13 µM | NCI-H460 12.2 µM | CAKI-1 10.7 µM | HOP-62 > 10 µM | NCI-H522 13.9 µM | SK-OV-3 15.8 µM

ClCCN(CC#CCCCC#CCN(CCCl)CCCl)CCCl
inactive: Malme-3M 14.2 µM | SF-268 8.85 µM | SK-MEL-2 13 µM | LOX IMVI 5.86 µM | SNB-75 10.3 µM | UACC-257 13.8 µM | HOP-92 18.4 µM | OVCAR-4 20.6 µM | HCC 2998 18.4 µM | HT-29 11.4 µM | RPMI-8226 2.79 µM | UACC-62 4.98 µM | TK-10 22.8 µM | NCI-H460 2.73 µM | CAKI-1 7.67 µM | HOP-62 11.3 µM | NCI-H522 8.3 µM | SK-OV-3 9.31 µM

Cc1nc(N)c(-c2ccccc2)s1
inactive: Malme-3M > 100 µM | SF-268 > 100 µM | SK-MEL-2 32.3 µM | LOX IMVI 52.4 µM | SNB-75 86.7 µM | UACC-257 53.7 µM | HOP-92 > 100 µM | OVCAR-4 > 100 µM | HCC 2998 > 100 µM | HT-29 > 58.3 µM | RPMI-8226 > 49.1 µM | UACC-62 > 72.1 µM | TK-10 > 100 µM | NCI-H460 51.1 µM | CAKI-1 > 92.7 µM | HOP-62 > 100 µM | NCI-H522 42.7 µM | SK-OV-3 38.3 µM

N#CC1(Cc2ccc(N)cc2)c2ccccc2C=CN1C(=O)c1ccccc1 (stereo not drawn)
inactive: Malme-3M 24.4 µM | SF-268 40.6 µM | SK-MEL-2 9.29 µM | LOX IMVI 51.6 µM | SNB-75 29.3 µM | UACC-257 39.7 µM | HOP-92 33.6 µM | HCC 2998 > 100 µM | HT-29 36.1 µM | RPMI-8226 35.2 µM | UACC-62 30.8 µM | TK-10 44.4 µM | HOP-62 > 100 µM | NCI-H522 60.1 µM | SK-OV-3 66.4 µM

CCCN(CCC)C(=O)C(=O)c1c(N)[nH]n(-c2ccccc2)c1=O
inactive: Malme-3M > 100 µM | SF-268 > 100 µM | SK-MEL-2 > 100 µM | LOX IMVI > 100 µM | UACC-257 45.1 µM | HOP-92 > 100 µM | OVCAR-4 > 100 µM | HCC 2998 > 100 µM | HT-29 > 100 µM | RPMI-8226 > 100 µM | UACC-62 > 100 µM | TK-10 > 100 µM | NCI-H460 > 100 µM | CAKI-1 > 100 µM | NCI-H522 > 100 µM | SK-OV-3 > 100 µM

CCOC(=O)C(=O)Nc1ccc(C)cc1C
inactive: Malme-3M > 100 µM | SF-268 > 100 µM | SK-MEL-2 > 100 µM | LOX IMVI > 100 µM | UACC-257 > 100 µM | HOP-92 > 100 µM | OVCAR-4 > 100 µM | HCC 2998 > 100 µM | HT-29 > 100 µM | RPMI-8226 > 100 µM | UACC-62 > 100 µM | TK-10 > 100 µM | NCI-H460 > 100 µM | CAKI-1 > 100 µM | HOP-62 > 100 µM | NCI-H522 > 100 µM | SK-OV-3 > 100 µM

CC(C)c1cc2c(O)c(c1)Cc1cc(C(C)C)cc(c1O)Cc1cc(C(C)C)cc(c1O)Cc1cc(C(C)C)cc(c1O)Cc1cc(C(C)C)cc(c1O)Cc1cc(C(C)C)cc(c1O)C2
inactive: Malme-3M > 100 µM | SF-268 > 100 µM | SK-MEL-2 > 100 µM | SNB-75 24.9 µM | UACC-257 > 100 µM | HOP-92 > 100 µM | OVCAR-4 > 100 µM | HCC 2998 > 100 µM | HT-29 > 100 µM | RPMI-8226 > 100 µM | UACC-62 > 100 µM | TK-10 > 100 µM | NCI-H460 > 100 µM | HOP-62 > 100 µM | NCI-H522 > 100 µM

Cc1ccc2c(c1)-c1c3c(nn1-c1ccccc1)-c1ccccc1SC3O2 (stereo not drawn)
inactive: Malme-3M > 100 µM | SF-268 > 100 µM | SK-MEL-2 > 100 µM | LOX IMVI > 100 µM | SNB-75 > 100 µM | UACC-257 > 100 µM | HOP-92 > 100 µM | HCC 2998 > 100 µM | HT-29 > 100 µM | RPMI-8226 63.8 µM | TK-10 > 100 µM | NCI-H460 > 100 µM | HOP-62 > 100 µM | NCI-H522 > 100 µM | SK-OV-3 > 100 µM
